Results as given in patent US5891847A, “Treatment of degenerative eye disorders” (Ramot University Authority for Applied Research and …, priority 1992, dated 1999).

Tested on: RCS rats
Assay: Retinal degeneration in RCS rats: histological and morphometric analysis of the retina after daily intramuscular injections
Assay type: in vivo, rat
Text: Royal College Surgeons (RCS) rats were used. In RCS rats, a progressive loss of photoreceptor cells, caused by a recessively autosomal mutation of the RPE (La Vail, 1981), leads to severe visual impairment. Due to the failure of pigment epithelium phagocytosis, rod outer segment material accumulates between the retina and the RPE and results in retinal degeneration. […] The age of the animals in the experiment will hereinafter be referred to in relation with the postnatal day which will be indicated as pn, wherein n=the postnatal day. This disorder is similar to age-related macular degeneration in humans in that a metabolic insufficiency of the RPE cells results in a secondary progressive photoreceptor loss and vision impairment.
Enucleated eyes removed from the orbit eyes were fixated for plastic embedding in epoxy resin (Faktorovitch 1990; La Vail, 1981). The eyes were sectioned parallel to the vertical meridian.
The histological sections which were analyzed originated from the posterior part of the eye, from ora serata to ora serata including the optic nerve. Each histological preparation was analyzed by computerized image analysis. Twelve measurements (six from each side of the optic nerve) were taken at pre-determined points. At each point the number of rows of photoreceptors in the outer nuclear layer (ONL), as well as the thickness of inner plexiform layer (IPL) were determined.
The RCS rats of the experiment were divided into three groups of rats, each group including eight rats (8 eyes). The three groups were as follows:
1. RCS rats at the age of p23 receiving no treatment.
2. RCS rats at the age of p38 receiving no treatment.
3. RCS rats at the age of p23 receiving daily intramuscular injections to the hind leg containing α-MSH analog which was prepared as described above. Each rat received 0.01 micrograms of the α-MSH analog in 0.2 ml PBS in each injection.
The rats were sacrificed at the age of p38, the eyes were enucleated and then subjected to fixation and histological sections were prepared, as described above. The histological preparations of the eyes were examined morphometrically as described above and, in addition, the retinas were also examined by light microscopy.
The effect of α-MSH analog treatment on the retinas of the rats was quantitated by measuring the two following parameters at 11 or 14 points in the retina at various distances from the optic nerve:
An experiment similar to the one described above was also carried out in which the α-MSH analog treatment of Group 3 rats was replaced by α-MSH treatment. The result of this experiment, not shown were similar to the results of the above described experiment.

[1] = RCS rats, daily i.m. injections, compared to untreated rats

Nle^4 D-Phe^7 α-MSH [α-MSH analog]
number of layers of photoreceptors in the ONL (histological preparation, FIG. 3) (RCS rat at p38, daily intramuscular injections p23 to p38, 0.01 micrograms per injection, untreated 3-4 layers): 7-8 layers
mean row number in treated higher than in non-treated (RCS rats at p38, ONL photoreceptor rows, treated vs non-treated): 60%
mean number of photoreceptor rows in ONL (FIG. 4) (RCS rats at p38, daily i.m. injections, 9 out of 11 points of measurement, non-treated 3.5±0.4, p<0.05): 5.6±0.6 rows
thickness of the inner plexiform layer (IPL) (FIG. 5) (RCS rats at p38, central sector of the retina, 1.3 mm of each side of the optic nerve, untreated 23 microns, p<0.05): 50 microns
effect on photoreceptor degeneration (in words) [1]: rescued from degeneration
effect on thickness of IPL / adjacent retinal layers (in words) [1]: significantly greater
effective dose per rat (daily intramuscular injection) (RCS rats, dose needed to obtain the same effect on photoreceptor degeneration and retinal layer thickness): 0.01-0.5 microgram
number of rows of photoreceptors in the ONL, fold higher than non-treated (points 0.8 mm and 1.7 mm away from the optic nerve, Group 3 vs Group 2, p<0.001): 2 ×
